Results reported in patent US20230416294A1, “DECITABINE ANALOGS FOR IMMUNOLOGICAL AND ONCOLOGICAL THERAPY” (The Johns Hopkins University, priority 2020, published 2023).
Where two headings read alike, the source gives them in different places.

How the values were obtained:
[1] = tested on: Regulatory T cell (Tregs); assay: Treg functional assay for efficacy; assay type: cell-based, Murine; conditions: dose response
Experimental: A functional assay was developed to identify a compound that can augment Regulatory T cell (Tregs) suppressive function. Tregs are the major regulators of the immune systems and are paramount in transplant tolerance and in autoimmune and inflammatory diseases. Current hypomethylating drugs such as decitabine (DAC) can augment Treg function, but carry significant side effects and cytotoxicity. Murine Tregs were isolated from spleens using magnetic beads (Miltenyi). […] Tregs were cultured for 48 hrs in the presence of anti-CD3, anti CD28 and IL-2+/−equimolar concentrations decitabine and analogs. After 48 hrs, Tregs were analyzed for suppressive phenotype using Foxp3 expression (master transcription factor) and relative proliferation (Ki-67 expression).

cytidine deaminase (CDA) = cytidine deaminase (CDA) (Homo sapiens, UniProt P32320); assay: stability to cytidine deaminase (CDA); assay type: in vitro ADME
Sequence of cytidine deaminase (CDA) (P32320 whole entry, species assumed): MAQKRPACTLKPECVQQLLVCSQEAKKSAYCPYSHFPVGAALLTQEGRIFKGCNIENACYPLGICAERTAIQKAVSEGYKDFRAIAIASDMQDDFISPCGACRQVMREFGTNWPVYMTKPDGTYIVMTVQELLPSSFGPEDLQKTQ

Mouse CD4+ T cells = assay: regulatory T cell phenotype and function in cultured CD4+ T cells; assay type: cell-based; conditions: Mouse CD4+ T cells cultured for 3 days +/−DAC or MK-923
Experimental: Mouse CD4+ T cells were cultured for 3 days +/−DAC or MK-923;

influenza = influenza model; conditions: in vivo
[2] = tested on: eosinophilic inflammation; assay: asthma model; conditions: in vivo
lung allograft rejection = assay: lung allograft rejection; conditions: in vivo
[3] = lung delivery versus plasma after nebulization in LPS lung injury model; assay type: in vivo; conditions: inhaled, nebulized, read-out: enhanced lung delivery versus plasma
DU145 cancer cells = assay: DAC incorporation into genomic DNA and DNA demethylation in DU145 cells; assay type: cell-based; conditions: DU145 cancer cells treated with a dose response of MK-923
Experimental: DU145 cancer cells were treated with a dose response of MK-923, and the degree of 5-aza-2′deoxycytidine (DAC) (Blue line, left axis), and DNA demethylation (orange line, right axis), was measured.

[4] = tested on: acute lung injury induced by lipopolysaccharide (LPS); conditions: in vivo
[5] = toxicity of nebulized compound versus DAC; assay type: in vivo
[6] = tested on: bacterial-induced lung injury; assay: bacterial-induced lung injury model, nebulized compound; assay type: in vivo; conditions: (1 mg/kg DAC)

Question: Which “increase in Tregs” value [1] does the source give for `O=c1nc(/N=C/N2CCCC2)ncn1[C@H]1C[C@H](O)[C@@H](CO)O1` [MK-911] here?
Answer: dose-dependent increase

Question: What about the “stability to cytidine deaminase (CDA)” value (cytidine deaminase (CDA)) of the same molecule?
Answer: stable

Question: Which results are given for `Nc1ncn([C@H]2C[C@H](O)[C@@H](CO)O2)c(=O)n1` [decitabine, 5-aza-2′-deoxycytidine]?
Answer: enhancing regulatory T cell (Tregs) phenotype and function (Mouse CD4+ T cells): equipotent; increase in Tregs [1]: dose-dependent increase; ongoing inflammation in an influenza model (influenza): rescues ongoing inflammation; eosinophilic inflammation in an asthma model [2]: potently abrogates eosinophilic inflammation; lung allograft rejection (lung allograft rejection): improves lung allograft rejection

Question: Which “stability to cytidine deaminase (CDA)” value (cytidine deaminase (CDA); +/−tetrahydrouridine) does the source give for `CN(C)/C=N\c1ncn([C@H]2C[C@H](O)[C@@H](CO)O2)c(=O)n1` [MK-890, N^4-Dimethylaminomethylene derivative] here?
Answer: stable

Question: For `CN1CCC/C1=N/c1ncn([C@H]2C[C@H](O)[C@@H](CO)O2)c(=O)n1` [MK-923], which “enhancing regulatory T cell (Tregs) phenotype and function” value (Mouse CD4+ T cells) is on record?
Answer: equipotent

Question: And the Kp [3]?
Answer: 6

Question: What about the “5-aza-2′deoxycytidine (DAC) incorporation into genomic DNA” value (DU145 cancer cells) of the same molecule?
Answer: dose responsive increase

Question: What about the “DNA Cytosine methylation” value (DU145 cancer cells) of the same molecule?
Answer: decrease

Question: What about the “therapeutic index versus DAC” value [4] of the same molecule?
Answer: enhanced therapeutic index versus DAC

Question: And the “toxicity in LPS lung injury model” value [4]?
Answer: without overt toxicity

Question: What about the “toxicity versus DAC” value [5] of the same molecule?
Answer: improved toxicity versus DAC

Question: What about the “efficacy in bacterial-induced lung injury” value [6] of the same molecule?
Answer: rescues bacterial-induced lung injury

Question: And the hematological toxicity [6]?
Answer: reduced hematological toxicity
